Measurements as given in PMC7523345 (Investigational new drugs, 2018).

Assay: Phase I dose escalation study: safety, tolerability, DLT and MTD
Format: in vivo

Cc1cccc2c1NC(=O)[C@@H](NC(=O)[C@H](CCC(F)(F)F)[C@H](CCC(F)(F)F)C(N)=O)N=C2c1cccc(F)c1 [BMS-986115]
16 (44) n (%): Fatigue (drug related AE, all grades) (All patients (N = 36)) | Vomiting (drug related AE, all grades) (All patients (N = 36))
7 (19) n (%): Diarrhoea (drug related AE, Grade 3 and 4) (All patients (N = 36))
1 (50) n (%): Hypophosphataemia (drug related AE, Grade 3 and 4) (Arm A QD 0.3 mg (N = 2)) | Pruritus (drug related AE, all grades) (Arm A QD 0.3 mg (N = 2)) | Rash (drug related AE, all grades) (Arm A QD 0.3 mg (N = 2)) | Sinusitis (drug related AE, all grades) (Arm A QD 0.3 mg (N = 2)) | Diarrhoea (drug related AE, all grades) (Arm A QD 0.6 mg (N = 2)) | Hypophosphataemia (drug related AE, all grades) (Arm A QD 0.6 mg (N = 2)) | Nausea (drug related AE, all grades) (Arm A QD 0.6 mg (N = 2)) | Rash (drug related AE, all grades) (Arm A QD 0.6 mg (N = 2))
26 (72) n (%): Diarrhoea (drug related AE, all grades) (All patients (N = 36))
3 (8) n (%): Abdominal pain (drug related AE, all grades) (All patients (N = 36)) | Dry mouth (drug related AE, all grades) (All patients (N = 36)) | Dyspepsia (drug related AE, all grades) (All patients (N = 36)) | Flatulence (drug related AE, all grades) (All patients (N = 36)) | Increased upper airway secretion (drug related AE, all grades) (All patients (N = 36)) | Mouth ulceration (drug related AE, all grades) (All patients (N = 36))
29%: Gr 3/4 diarrhoea related to the study treatment (1.5 mg QD, 2 of 7 patients)
6 subjects: Subjects with treatment-related SAEs (Arm A QD)
4 (11) n (%): Cough (drug related AE, all grades) (All patients (N = 36)) | Dermatitis acneiform (drug related AE, all grades) (All patients (N = 36)) | Hypokalaemia (drug related AE, Grade 3 and 4) (All patients (N = 36)) | Nausea (drug related AE, Grade 3 and 4) (All patients (N = 36))
≤ 24 h: Time for Gr 3/4 diarrhoea to resolve to Gr 1 (1.5 mg QD, with appropriate medical management)
1 (3) n (%): Abdominal pain (drug related AE, Grade 3 and 4) (All patients (N = 36)) | Colitis (drug related AE, Grade 3 and 4) (All patients (N = 36)) | Cough (drug related AE, Grade 3 and 4) (All patients (N = 36)) | Decreased Appetite (drug related AE, Grade 3 and 4) (All patients (N = 36)) | Dehydration (drug related AE, Grade 3 and 4) (All patients (N = 36)) | Fatigue (drug related AE, Grade 3 and 4) (All patients (N = 36)) | Hypocalcaemia (drug related AE, Grade 3 and 4) (All patients (N = 36)) | Ileus (drug related AE, Grade 3 and 4) (All patients (N = 36)) | Leucocytosis (drug related AE, Grade 3 and 4) (All patients (N = 36)) | Pruritus (drug related AE, Grade 3 and 4) (All patients (N = 36)) | Pulmonary embolism (drug related AE, Grade 3 and 4) (All patients (N = 36)) | Urticaria (drug related AE, Grade 3 and 4) (All patients (N = 36)) | Vomiting (drug related AE, Grade 3 and 4) (All patients (N = 36))
10 (28) n (%): Hypokalaemia (drug related AE, all grades) (All patients (N = 36))
2 (100) n (%): Hypophosphataemia (drug related AE, all grades) (Arm A QD 0.3 mg (N = 2))
0: No. of patients with DLTs (Arm A QD 0.3 mg, 2 DLT evaluable patients)
0 n (%): Abdominal distension (drug related AE, all grades) (Arm A QD 0.3 mg (N = 2)) | Abdominal pain (drug related AE, Grade 3 and 4) (Arm A QD 0.3 mg (N = 2)) | Abdominal pain (drug related AE, all grades) (Arm A QD 0.3 mg (N = 2)) | Blood creatinine increased (drug related AE, all grades) (Arm A QD 0.3 mg (N = 2)) | Colitis (drug related AE, Grade 3 and 4) (Arm A QD 0.3 mg (N = 2)) | Cough (drug related AE, Grade 3 and 4) (Arm A QD 0.3 mg (N = 2)) | Cough (drug related AE, all grades) (Arm A QD 0.3 mg (N = 2)) | Decreased Appetite (drug related AE, Grade 3 and 4) (Arm A QD 0.3 mg (N = 2)) | Decreased Appetite (drug related AE, all grades) (Arm A QD 0.3 mg (N = 2)) | Dehydration (drug related AE, Grade 3 and 4) (Arm A QD 0.3 mg (N = 2)) | Dehydration (drug related AE, all grades) (Arm A QD 0.3 mg (N = 2)) | Dermatitis acneiform (drug related AE, all grades) (Arm A QD 0.3 mg (N = 2)) | Diarrhoea (drug related AE, Grade 3 and 4) (Arm A QD 0.3 mg (N = 2)) | Diarrhoea (drug related AE, all grades) (Arm A QD 0.3 mg (N = 2)) | Dry mouth (drug related AE, all grades) (Arm A QD 0.3 mg (N = 2)) | Dry skin (drug related AE, all grades) (Arm A QD 0.3 mg (N = 2)) | Dysgeusia (drug related AE, all grades) (Arm A QD 0.3 mg (N = 2)) | Dyspepsia (drug related AE, all grades) (Arm A QD 0.3 mg (N = 2)) | Dysphonia (drug related AE, all grades) (Arm A QD 0.3 mg (N = 2)) | Fatigue (drug related AE, Grade 3 and 4) (Arm A QD 0.3 mg (N = 2)) | Fatigue (drug related AE, all grades) (Arm A QD 0.3 mg (N = 2)) | Flatulence (drug related AE, all grades) (Arm A QD 0.3 mg (N = 2)) | Hypocalcaemia (drug related AE, Grade 3 and 4) (Arm A QD 0.3 mg (N = 2)) | Hypocalcaemia (drug related AE, all grades) (Arm A QD 0.3 mg (N = 2)) | Hypokalaemia (drug related AE, Grade 3 and 4) (Arm A QD 0.3 mg (N = 2)) | Hypokalaemia (drug related AE, all grades) (Arm A QD 0.3 mg (N = 2)) | Hyponatraemia (drug related AE, Grade 3 and 4) (Arm A QD 0.3 mg (N = 2)) | Hyponatraemia (drug related AE, all grades) (Arm A QD 0.3 mg (N = 2)) | Ileus (drug related AE, Grade 3 and 4) (Arm A QD 0.3 mg (N = 2)) | Increased upper airway secretion (drug related AE, all grades) (Arm A QD 0.3 mg (N = 2)) | Laryngeal pain (drug related AE, all grades) (Arm A QD 0.3 mg (N = 2)) | Leucocytosis (drug related AE, Grade 3 and 4) (Arm A QD 0.3 mg (N = 2)) | Mouth ulceration (drug related AE, all grades) (Arm A QD 0.3 mg (N = 2)) | Nausea (drug related AE, Grade 3 and 4) (Arm A QD 0.3 mg (N = 2)) | Nausea (drug related AE, all grades) (Arm A QD 0.3 mg (N = 2)) | Pruritus (drug related AE, Grade 3 and 4) (Arm A QD 0.3 mg (N = 2)) | Pulmonary embolism (drug related AE, Grade 3 and 4) (Arm A QD 0.3 mg (N = 2)) | Rash maculopapular (drug related AE, all grades) (Arm A QD 0.3 mg (N = 2)) | Urticaria (drug related AE, Grade 3 and 4) (Arm A QD 0.3 mg (N = 2)) | Vision blurred (drug related AE, all grades) (Arm A QD 0.3 mg (N = 2)) | Vomiting (drug related AE, Grade 3 and 4) (Arm A QD 0.3 mg (N = 2)) | Vomiting (drug related AE, all grades) (Arm A QD 0.3 mg (N = 2)) | Weight decreased (drug related AE, all grades) (Arm A QD 0.3 mg (N = 2)) | Abdominal distension (drug related AE, all grades) (Arm A QD 0.6 mg (N = 2)) | Abdominal pain (drug related AE, Grade 3 and 4) (Arm A QD 0.6 mg (N = 2)) | Abdominal pain (drug related AE, all grades) (Arm A QD 0.6 mg (N = 2)) | Blood creatinine increased (drug related AE, all grades) (Arm A QD 0.6 mg (N = 2)) | Colitis (drug related AE, Grade 3 and 4) (Arm A QD 0.6 mg (N = 2)) | Cough (drug related AE, Grade 3 and 4) (Arm A QD 0.6 mg (N = 2)) | Cough (drug related AE, all grades) (Arm A QD 0.6 mg (N = 2)) | Decreased Appetite (drug related AE, Grade 3 and 4) (Arm A QD 0.6 mg (N = 2)) | Decreased Appetite (drug related AE, all grades) (Arm A QD 0.6 mg (N = 2)) | Dehydration (drug related AE, Grade 3 and 4) (Arm A QD 0.6 mg (N = 2)) | Dehydration (drug related AE, all grades) (Arm A QD 0.6 mg (N = 2)) | Dermatitis acneiform (drug related AE, all grades) (Arm A QD 0.6 mg (N = 2)) | Diarrhoea (drug related AE, Grade 3 and 4) (Arm A QD 0.6 mg (N = 2)) | Dry mouth (drug related AE, all grades) (Arm A QD 0.6 mg (N = 2)) | Dry skin (drug related AE, all grades) (Arm A QD 0.6 mg (N = 2)) | Dysgeusia (drug related AE, all grades) (Arm A QD 0.6 mg (N = 2)) | Dyspepsia (drug related AE, all grades) (Arm A QD 0.6 mg (N = 2)) | Dysphonia (drug related AE, all grades) (Arm A QD 0.6 mg (N = 2)) | Fatigue (drug related AE, Grade 3 and 4) (Arm A QD 0.6 mg (N = 2)) | Fatigue (drug related AE, all grades) (Arm A QD 0.6 mg (N = 2)) | Flatulence (drug related AE, all grades) (Arm A QD 0.6 mg (N = 2)) | Hypocalcaemia (drug related AE, Grade 3 and 4) (Arm A QD 0.6 mg (N = 2)) | Hypocalcaemia (drug related AE, all grades) (Arm A QD 0.6 mg (N = 2)) | Hypokalaemia (drug related AE, Grade 3 and 4) (Arm A QD 0.6 mg (N = 2)) | Hypokalaemia (drug related AE, all grades) (Arm A QD 0.6 mg (N = 2)) | Hyponatraemia (drug related AE, Grade 3 and 4) (Arm A QD 0.6 mg (N = 2)) | Hyponatraemia (drug related AE, all grades) (Arm A QD 0.6 mg (N = 2)) | Hypophosphataemia (drug related AE, Grade 3 and 4) (Arm A QD 0.6 mg (N = 2)) | Ileus (drug related AE, Grade 3 and 4) (Arm A QD 0.6 mg (N = 2)) | Increased upper airway secretion (drug related AE, all grades) (Arm A QD 0.6 mg (N = 2)) | Laryngeal pain (drug related AE, all grades) (Arm A QD 0.6 mg (N = 2)) | Leucocytosis (drug related AE, Grade 3 and 4) (Arm A QD 0.6 mg (N = 2)) | Mouth ulceration (drug related AE, all grades) (Arm A QD 0.6 mg (N = 2)) | Nausea (drug related AE, Grade 3 and 4) (Arm A QD 0.6 mg (N = 2)) | Pruritus (drug related AE, Grade 3 and 4) (Arm A QD 0.6 mg (N = 2)) | Pruritus (drug related AE, all grades) (Arm A QD 0.6 mg (N = 2)) | Pulmonary embolism (drug related AE, Grade 3 and 4) (Arm A QD 0.6 mg (N = 2))
9 (25) n (%): Pruritus (drug related AE, all grades) (All patients (N = 36))
23 (64) n (%): Hypophosphataemia (drug related AE, all grades) (All patients (N = 36))
2 (6) n (%): Abdominal distension (drug related AE, all grades) (All patients (N = 36)) | Blood creatinine increased (drug related AE, all grades) (All patients (N = 36)) | Hypocalcaemia (drug related AE, all grades) (All patients (N = 36)) | Hyponatraemia (drug related AE, Grade 3 and 4) (All patients (N = 36)) | Hyponatraemia (drug related AE, all grades) (All patients (N = 36)) | Laryngeal pain (drug related AE, all grades) (All patients (N = 36)) | Sinusitis (drug related AE, all grades) (All patients (N = 36)) | Vision blurred (drug related AE, all grades) (All patients (N = 36)) | Weight decreased (drug related AE, all grades) (All patients (N = 36))
5 (14) n (%): Dehydration (drug related AE, all grades) (All patients (N = 36)) | Dry skin (drug related AE, all grades) (All patients (N = 36)) | Dysgeusia (drug related AE, all grades) (All patients (N = 36)) | Dysphonia (drug related AE, all grades) (All patients (N = 36)) | Rash maculopapular (drug related AE, all grades) (All patients (N = 36))
11 (31) n (%): Rash (drug related AE, all grades) (All patients (N = 36))
14 (39) n (%): Hypophosphataemia (drug related AE, Grade 3 and 4) (All patients (N = 36))
22 (61) n (%): Nausea (drug related AE, all grades) (All patients (N = 36))
13 (36) n (%): Decreased Appetite (drug related AE, all grades) (All patients (N = 36))
